# Like-named read-outs stand apart in the source and are kept apart here.
# Legend:
# unstimulated saliva = test system: unstimulated saliva
# Procedure: The unstimulated saliva of D25-D33 was used to test the effect of different concentrations of nitrate on a pH drop caused by 0.2% of glucose after 5 h of incubation. For each donor, 187 µl of saliva and 22 µl of glucose (2% diluted in water) was added per well of a standard 96-well plate. Then, 11 pL of water without or with different concentrations of nitrate was added, leading to final concentrations of 0 mM, 0.5 mM, 1 mM, 1.5 mM, 2.5 mM, 3.5 mM, 4.5 mM, 5.5 mM, 6.5 mM, 7.5 mM and 8.5 mM of nitrate. The plate was sealed with adhesive aluminum foil (VWR) and incubated during 5 h at 37° C. After incubation, the samples were stored at −20° C. until pH measurements.
# For the nitrate, nitrite, ammonium, lactate and pH measurements, the RQflex® 10 Reflectoquant® (Merck Millipores), a reflectometer that measures the reflection of color changing test strips, was used.
# [1] = in vivo; cited from earlier work
# [2] = test system: oral biofilms grown from unstimulated saliva; settings: 6.5 mM nitrate
# Procedure: BHI medium (Biolife) with an additional 0.05 mg/L haemin, 0.005 mg/L menadione and 0.2 mM vitamin K (all Sigma-Aldrich) was prepared of which 100 pi was added to each well for background impedance measurements. An additional 25 µl of a 65 mM nitrate in water or just water were added to each well of the nitrate or control condition, respectively. Then, 125 pi freshly collected saliva was added, leading to a final concentration of 6.5 mM nitrate in the nitrate condition. The E-Plate 96 was placed in the xCELLigence system inside an incubator at 37° C. Every 10 minutes, a Cell Index measurement was taken. […] For Oh measurements, 1:1 medium and saliva mixtures were used. Then, duplicates of supernatant and biofilm were taken after 5 h and 9 h of growth. The supernatant was sampled and stored at −20° C. until pH, nitrate, nitrite, ammonium and lactate measurements. After this, a PBS washing step was performed and duplicates of biofilms were resuspended together in 200 pi PBS for storage at −20° C. until DNA isolation for sequencing.
# For DNA extraction, the biofilms were resuspended in 100 pi PBS and disaggregated 30 s in a sonicator bath (model Raypa VCI-50) at low ultrasound intensity. After this, DNA was isolated by MagNA Pure LC 2.0 Instrument (Roche Diagnostics), using the MagNA Pure LC DNA Isolation Kit III for Bacteria and Fungi (Roche Diagnostics) following the manufacturer's instructions with an additional enzymatic lysis step: to a salivary pellet in 100 pi PBS, […] lysis buffer and […] of enzyme mix, containing 20 mg/ml lysozyme ([…]), 5 mg/l lysostaphin (Sigma-Aldrich) and 0.625 mg/ml mutanolysin (Sigma-Aldrich), were added and incubated for 60 min at 37° C. DNA was resuspended in […] elution buffer and frozen at −20° C. until further analysis. To determine the amount of DNA for sequencing, the Quant-iT™ PicoGreen® dsDNA Assay Kit (ThermoFisher) and a Qubit™ 3 Fluorometer (ThermoScientific) were used, according to manufacturer's instructions.
# A pre-amplification step of the V1-V5 regions of the 16S rRNA gene was performed, following Dzidic et al 2019. An Illumina amplicon library was performed following the 16S rDNA gene Metagenomic Sequencing Library Preparation Illumina protocol (Part #15044223 Rev. A). The gene-specific primer sequences used in this protocol were 16S Amplicon F (SEQ ID NO: 8) and 16S Amplicon R (SEQ ID NO: 9), targeting the 16S rDNA gene V3 and V4 regions, resulting in a single amplicon of 460 bp. Overhang adapter sequences were used together for compatibility with Illumina index and sequencing adapters. After 16S rDNA gene amplification, the DNA was sequenced on a MiSeq Sequencer according to manufacturer's instructions (Illumina) using the 2×300 bp paired-ends protocol.
# The sequences were analyzed according to Boix-Amoros et al., 2016. In short, the reads were quality-filtered and end-trimmed in 10 bp windows with Prinseq. The PCR chimeras were removed with UCHIME according to Edgar et al., 2011. Only filtered sequences >250 bp were used to be taxonomically assigned at the genus level with the classifier of the Ribosomal Database Project (Wang et al., 2007), using a confidence interval of 80%. Operational Taxonomic Unit (OTU) picking was performed using VSEARCH (Rognes, 2016) at a 97% of sequence identity. Each OTU was aligned centroid using BLAST at 97% of identity and 100% query coverage, and retrieved only those species that agreed with the previous classification of the centroid at genus level provided by RDP classifier.
# Overall R programming language was used for statistical computing to perform downstream analyses. Genera with an abundance of <0.01% were removed from all groups.
structure (smiles),measurement,setting,value
"O=[N+]([O-])O [Nitrate, nitrate]",salivary pH after 5 h compared to 0 mM nitrate,"unstimulated saliva; 0.2% glucose, nitrate 0.5 mM to 8.5 mM",higher pH
same,nitrate concentrations for which no additional benefits were observed,unstimulated saliva; after 5 h,above 3.5 mM
same,nitrate concentrations that prevented salivary acidification due to glucose fermentation,unstimulated saliva; after 5 h,≥ 0.5 mM
same,nitrate recycled by the salivary glands into saliva,[1],25%
same,nitrate removed from the body by the kidneys into the urine,[1],Around 75%
same,increase of Neisseria compared to control condition,[2]; 5 h,3.5 ×
same,Bacterial abundance Aggregatibacter (Average),[2]; 5 h (n = 12),0.55%
same,Bacterial abundance Alloprevotella (Average),[2]; 5 h (n = 12),0.21%
same,Bacterial abundance Fusobacterium (Average),[2]; 5 h (n = 12),0.15%
same,Bacterial abundance Gemella (Average),[2]; 5 h (n = 12),2.76%
same,Bacterial abundance Granulicatella (Average),[2]; 5 h (n = 12),2.16%
same,Bacterial abundance Haemophilus (Average),[2]; 5 h (n = 12),7.30%
same,Bacterial abundance Leptotrichia (Average),[2]; 5 h (n = 12),0.14%
same,Bacterial abundance Neisseria (Average),[2]; 5 h (n = 12),20.65%
same,Bacterial abundance Other (Average),[2]; 5 h (n = 12),3.64%
same,Bacterial abundance Porphyromonas (Average),[2]; 5 h (n = 12),0.56%
same,Bacterial abundance Prevotella (Average),[2]; 5 h (n = 12),1.99%
same,Bacterial abundance Rothia (Average),[2]; 5 h (n = 12),0.53%
same,Bacterial abundance Streptococcus (Average),[2]; 5 h (n = 12),45.29%
same,Bacterial abundance Viellonella (Average),[2]; 5 h (n = 12),10.84%
same,Bacterial abundance unclass. Neisseriaceae (Average),[2]; 5 h (n = 12),0.95%
same,Bacterial abundance unclass. Pasteurellaceae (Average),[2]; 5 h (n = 12),2.00%
same,Bacterial abundance unclass. Veillonellaceae (Average),[2]; 5 h (n = 12),0.26%
same,Rothia higher than in control condition,[2]; 5 h and 9 h,2.7 ×
same,increase of Neisseria compared to control condition,[2]; 9 h,4.9 ×
same,Bacterial abundance Aggregatibacter (Average),[2]; 9 h (n = 12),0.72%
same,Bacterial abundance Alloprevotella (Average),[2]; 9 h (n = 12),0.37%
same,Bacterial abundance Fusobacterium (Average),[2]; 9 h (n = 12),0.38%
same,Bacterial abundance Gemella (Average),[2]; 9 h (n = 12),1.83%
same,Bacterial abundance Granulicatella (Average),[2]; 9 h (n = 12),1.56%
same,Bacterial abundance Haemophilus (Average),[2]; 9 h (n = 12),8.86%
same,Bacterial abundance Leptotrichia (Average),[2]; 9 h (n = 12),0.16%
same,Bacterial abundance Neisseria (Average),[2]; 9 h (n = 12),20.99%
same,Bacterial abundance Other (Average),[2]; 9 h (n = 12),4.80%
same,Bacterial abundance Porphyromonas (Average),[2]; 9 h (n = 12),1.51%
same,Bacterial abundance Prevotella (Average),[2]; 9 h (n = 12),2.78%
same,Bacterial abundance Rothia (Average),[2]; 9 h (n = 12),0.25%
same,Bacterial abundance Streptococcus (Average),[2]; 9 h (n = 12),31.75%
same,Bacterial abundance Viellonella (Average),[2]; 9 h (n = 12),20.40%
same,Bacterial abundance unclass. Neisseriaceae (Average),[2]; 9 h (n = 12),1.07%
same,Bacterial abundance unclass. Pasteurellaceae (Average),[2]; 9 h (n = 12),2.12%
same,Bacterial abundance unclass. Veillonellaceae (Average),[2]; 9 h (n = 12),0.38%
same,change of Kingella,"[2]; after 5 h, p<0.05",increased significantly
same,"Porphyromonas, Fusobacterium, Leptotrichia, Alloprevotella, Dialister and Parvimonas versus control",[2]; p<0.05 at 5 h and/or 9 h,significantly lower
same,change of caries-associated Atopobium and Oribacterium,[2]; p<0.05 at 5 h or 5 h and 9 h,decreased significantly

# — patent publication US20230141823A1, “PREBIOTIC AND PROBIOTIC TREATMENT TO REDUCE ORAL DYSBIOSIS AND PROMOTE EUBIOSIS” (FUNDACIÓN PARA EL FOMENTO DE LA INVESTIGACIÓN SANITARIA Y …, priority 2019, published 2023)
